According to patent US9738932B2, “Biomarkers for cardiovascular side-effects induced by cox-2 inhibitory compounds” (FIRALIS SAS, priority 2005, dated 2017):

Test system: mRNA expression in cardiovascular tissues
Assay: Affymetrix GeneChip mRNA expression profiling of monkey tissues (iliac vein, pulmonary vein, aorta, carotid artery, heart) after two-week oral-gavage treatment
Details: iliac vein
[1] = group average (Vioxx without A60055)
[2] = group avg, Vioxx without A60055

Procedure: Administration of compounds. A two-week oral-gavage treatment with the Cox-2 specific inhibitor COX189 (Lumiracoxib®, Novartis) in comparison with rofecoxib (Vioxx®, Merck), and celecoxib (Celebrex®, Pharmacia/Pfizer), and with the nonselective NSAID, diclofenac (Voltaren®, Novartis) was performed. […] The test items were administered daily at doses of 100 mg/kg/day, except Vioxx® which was administered at 50 mg/kg/day.
Gene expression profiles. After a period of time (e.g., four weeks) of compound/drug administration, the treated animals are necropsied. 120 tissues are dissected and rapidly snap-frozen for genomics analysis. Organ samples are isolated for histopathological examinations and for gene expression localizations, such as by in situ hybridization.
Gene expression profiles have been generated using the Affymetrix microarray technology. (i) RNA extraction and purification: Briefly, total RNA was obtained by acid guanidinium thiocyanate-phenol-chloroform extraction (Trizol®, Invitrogen Life Technologies, San Diego, Calif.) from each frozen tissue section and the total RNA was then purified on an affinity resin (Rneasy®, Qiagen) according to the manufacturer's instructions. Total RNA was quantified by the absorbance at λ=260 nm (A260 nm) and the purity was estimated by the ratio A260 nm/A280 nm. Integrity of the RNA molecules was confirmed by non-denaturing agarose gel electrophoresis. RNA was stored at −80° C. until analysis. […] (ii) GeneChip® experiment: All GeneChip® experiments were conducted in the Genomics Factory EU following recommendations by the manufacturer of the GeneChip® system (Affymetrix, Expression Analysis Technical Manual (Affymetrix, Santa Clara, Calif., 2005). Human U133A genome arrays were used for transcript expression analysis. Double stranded cDNA was synthesized with a starting amount of approximately 5 μg full-length total RNA using the Superscript Choice System (Invitrogen Life Technologies) in the presence of a T7-(dT) 24 DNA oligonucleotide primer. Following synthesis, the cDNA was purified by phenol/chloroform/isoamyl alcohol extraction and ethanol precipitation. The purified cDNA was then transcribed in vitro using the BioArray® High Yield RNA Transcript Labeling Kit (ENZO) in the presence of biotinylated ribonucleotides form biotin labelled cRNA. The labelled cRNA was then purified on an affinity resin (Rneasy, Qiagen), quantified and fragmented. An amount of approximately 10 μg labelled cRNA was hybridized for approximately 16 hours at 45° C. to an expression probe array. The array was then washed and stained twice with streptavidin-phycoerythrin (Molecular Probes) using the GeneChip Fluidics Workstation 400 (Affymetrix). The array was then scanned twice using a confocal laser scanner (GeneArray Scanner®, Agilent) resulting in one scanned image. This resulting “.dat-file” was processed using the MASS program (Affymetrix) into a “.cel-file”. The “.cel file” was then transferred to tan Affymetrix GeneChip Laboratory Information Management System (LIMS) database, which is connected to a UNIX Sun Solaris server through a network filing system that allows for the average intensities for all probes cells (CEL file) to be downloaded into an Oracle database (NPGN). Raw data was converted to expression levels using a “target intensity” of 100. […] The data were checked for quality and loaded in the GeneSpring® software versions 5.0 (Silicon Genetics, Calif., US) for statistical analysis.
Quality control analysis of transcriptome data: The following quality measures were analysed for each sample: Scaling factor, background, percent present calls, AFFX-GAPDH 3′: AFFX-GAPDH 5′-ratio, AFFX-GAPDH 3′ variance, AFFX-Beta-actin 3′: AFFX-Beta-actin 5′-ratio.

For `CS(=O)(=O)c1ccc(C2=C(c3ccccc3)C(=O)OC2)cc1` [Vioxx®, rofecoxib], which “BCL6 (215990_s_at) mRNA expression, Avg fold changes vs control” value [1] is on record?
The value was 1.0 fold.

What about the “BTN2A2 (205298_s_at) mRNA expression, Avg fold changes vs control” value [1] of the same compound?
Its value is 1.1 fold.

What about the “CCR1 (205098_at) mRNA expression, Avg fold changes vs control” value [1] of the same compound?
Its value is 1.1 fold.

What about the “CD2 (205831_at) mRNA expression, Avg fold changes vs control” value [1] of the same compound?
Its value is 1.1 fold.

What about the “CD48 (204118_at) mRNA expression, Avg fold changes vs control” value [1] of the same compound?
Its value is 1.1 fold.

What about the “CD53 (203416_at) mRNA expression, Avg fold changes vs control” value [1] of the same compound?
The value was 1.2 fold.

What about the “CDC2 (210559_s_at) mRNA expression, Avg fold changes vs control” value [1] of the same compound?
The value was 1.0 fold.

And the “CYBB (203922_s_at) mRNA expression, Avg fold changes vs control” value [1]?
The value was 1.2 fold.

What about the “EMP3 (203729_at) mRNA expression, Avg fold changes vs control” value [1] of the same compound?
Its value is 0.7 fold.

What about the “FCER1G (204232_at) mRNA expression, Avg fold changes vs control” value [1] of the same compound?
Its value is 0.9 fold.

And the “FCGR2A (203561_at) mRNA expression, Avg fold changes vs control” value [1]?
Its value is 1.1 fold.

What about the “FCGRT (218831_s_at) mRNA expression, Avg fold changes vs control” value [1] of the same compound?
Its value is 1.0 fold.

And the “FKBP11 (219117_s_at) mRNA expression, Avg fold changes vs control” value [1]?
The value was 0.7 fold.

What about the “FKBP11 (219118_at) mRNA expression, Avg fold changes vs control” value [1] of the same compound?
The value was 0.6 fold.

What about the “GP6 (220336_s_at) mRNA expression, Avg fold changes vs control” value [1] of the same compound?
The value was 1.2 fold.

And the “HCLS1 (202957_at) mRNA expression, Avg fold changes vs control” value [1]?
The value was 1.2 fold.

And the “HEM1 (209734_at) mRNA expression, Avg fold changes vs control” value [1]?
The value was 1.2 fold.

And the “HLA-A (210514_x_at) mRNA expression, Avg fold changes vs control” value [1]?
Its value is 1.2 fold.

What about the “HLA-A (213932_x_at) mRNA expression, Avg fold changes vs control” value [1] of the same compound?
Its value is 1.2 fold.

What about the “HLA-C (211799_x_at) mRNA expression, Avg fold changes vs control” value [1] of the same compound?
The value was 1.0 fold.

What about the “HLA-E (200904_at) mRNA expression, Avg fold changes vs control” value [1] of the same compound?
The value was 1.1 fold.

What about the “HLA-F (221978_at) mRNA expression, Avg fold changes vs control” value [1] of the same compound?
Its value is 1.3 fold.

And the “ICAM1 (202637_s_at) mRNA expression, Avg fold changes vs control” value [1]?
Its value is 0.8 fold.

And the “IL13RA1 (210904_s_at) mRNA expression, Avg fold changes vs control” value [1]?
Its value is 1.1 fold.

And the “PIK3CD (203879_at) mRNA expression, Avg fold changes vs control” value [1]?
Its value is 1.1 fold.

And the “PRKCBP1 (209048_s_at) mRNA expression, Avg fold changes vs control” value [1]?
The value was 1.3 fold.

What about the “PRKCBP1 (209049_s_at) mRNA expression, Avg fold changes vs control” value [1] of the same compound?
The value was 1.0 fold.

And the “PTPN7 (204852_s_at) mRNA expression, Avg fold changes vs control” value [1]?
Its value is 1.4 fold.

And the “SIGIRR (52940_at) mRNA expression, Avg fold changes vs control” value [1]?
Its value is 1.1 fold.

What about the “STAT1 (200887_s_at) mRNA expression, Avg fold changes vs control” value [1] of the same compound?
The value was 1.2 fold.

And the “STAT1 (AFFX-HUMISGF3A/M97935_3_at) mRNA expression, Avg fold changes vs control” value [1]?
Its value is 1.1 fold.

What about the “STAT3 (208992_s_at) mRNA expression, Avg fold changes vs control” value [1] of the same compound?
The value was 1.0 fold.

And the “TCIRG1 (204158_s_at) mRNA expression, Avg fold changes vs control” value [1]?
The value was 1.0 fold.

What about the “THY1 (213869_x_at) mRNA expression, Avg fold changes vs control” value [1] of the same compound?
The value was 0.8 fold.

What about the “TMPO (209753_s_at) mRNA expression, Avg fold changes vs control” value [1] of the same compound?
Its value is 0.8 fold.

What about the “TMSB10 (217733_s_at) mRNA expression, Avg fold changes vs control” value [1] of the same compound?
Its value is 1.1 fold.

And the “TNFRSF21 (218856_at) mRNA expression, Avg fold changes vs control” value [1]?
Its value is 1.2 fold.

What about the “TRB@ (210915_x_at) mRNA expression, Avg fold changes vs control” value [1] of the same compound?
Its value is 1.3 fold.

What about the “TRB@ (213193_x_at) mRNA expression, Avg fold changes vs control” value [1] of the same compound?
The value was 1.2 fold.

And the “209813_x_at avg fold change vs control” value [2]?
Its value is 0.4 fold.

What about the “AIF1 (209901_x_at) avg fold change vs control” value [2] of the same compound?
The value was 0.3 fold.

And the “AIF1 (213095_x_at) avg fold change vs control” value [2]?
Its value is 0.6 fold.

And the “B2M (201891_s_at) avg fold change vs control” value [2]?
Its value is 1.4 fold.

What about the “BCL3 (204908_s_at) avg fold change vs control” value [2] of the same compound?
The value was 0.7 fold.

And the “BTN3A1 (207485_x_at) avg fold change vs control” value [2]?
Its value is 2.0 fold.

What about the “BTN3A3 (38241_at) avg fold change vs control” value [2] of the same compound?
Its value is 14 fold.

And the “BTN3A3 (204820_s_at) avg fold change vs control” value [2]?
Its value is 1.6 fold.

What about the “BTN3A3 (204821_at) avg fold change vs control” value [2] of the same compound?
Its value is 1.7 fold.

And the “C1QA (218232_at) avg fold change vs control” value [2]?
The value was 0.9 fold.

And the “C1QB (202953_at) avg fold change vs control” value [2]?
Its value is 1.0 fold.

What about the “C1R (212067_s_at) avg fold change vs control” value [2] of the same compound?
Its value is 0.9 fold.

And the “C1S (208747_s_at) avg fold change vs control” value [2]?
Its value is 1.3 fold.

What about the “C2 (203052_at) avg fold change vs control” value [2] of the same compound?
The value was 0.9 fold.

What about the “C4A (208451_s_at) avg fold change vs control” value [2] of the same compound?
The value was 1.1 fold.

And the “CASP1 (209970_x_at) avg fold change vs control” value [2]?
The value was 1.1 fold.

And the “CASP1 (211367_s_at) avg fold change vs control” value [2]?
Its value is 1.4 fold.

And the “CCL2 (216598_s_at) avg fold change vs control” value [2]?
Its value is 1.0 fold.

And the “CCL3 (205114_s_at) avg fold change vs control” value [2]?
The value was 1.4 fold.

And the “CCL5 (1405_i_at) avg fold change vs control” value [2]?
Its value is 0.5 fold.

What about the “CCL8 (214038_at) avg fold change vs control” value [2] of the same compound?
Its value is 1.8 fold.

What about the “CCL18 (209924_at) avg fold change vs control” value [2] of the same compound?
The value was 0.7 fold.

And the “CCL19 (210072_at) avg fold change vs control” value [2]?
Its value is 1.2 fold.

What about the “CCNB2 (202705_at) avg fold change vs control” value [2] of the same compound?
The value was 1.4 fold.

And the “CD3D (213539_at) avg fold change vs control” value [2]?
The value was 2.0 fold.

What about the “CD8A (205758_at) avg fold change vs control” value [2] of the same compound?
The value was 1.3 fold.

What about the “CD14 (201743_at) avg fold change vs control” value [2] of the same compound?
The value was 0.8 fold.

What about the “CD74 (209619_at) avg fold change vs control” value [2] of the same compound?
The value was 1.1 fold.

What about the “CLU (208791_at) avg fold change vs control” value [2] of the same compound?
The value was 0.9 fold.

What about the “CMAH (210571_s_at) avg fold change vs control” value [2] of the same compound?
Its value is 1.0 fold.

And the “CTSC (201487_at) avg fold change vs control” value [2]?
The value was 1.1 fold.

And the “CTSK (202450_s_at) avg fold change vs control” value [2]?
The value was 1.3 fold.

And the “CTSS (202902_s_at) avg fold change vs control” value [2]?
The value was 1.0 fold.

What about the “CX3CR1 (205898_at) avg fold change vs control” value [2] of the same compound?
Its value is 1.0 fold.

What about the “CXCL9 (203915_at) avg fold change vs control” value [2] of the same compound?
Its value is 1.6 fold.

What about the “CXCL10 (204533_at) avg fold change vs control” value [2] of the same compound?
Its value is 1.1 fold.

What about the “CXCL11 (210163_at) avg fold change vs control” value [2] of the same compound?
The value was 1.5 fold.

What about the “CXCL11 (211122_s_at) avg fold change vs control” value [2] of the same compound?
The value was 1.0 fold.

What about the “CXCL12 (209687_at) avg fold change vs control” value [2] of the same compound?
Its value is 1.0 fold.

What about the “CYBA (203028_s_at) avg fold change vs control” value [2] of the same compound?
The value was 1.1 fold.

What about the “CYBB (203923_s_at) avg fold change vs control” value [2] of the same compound?
The value was 0.9 fold.

And the “CYP1B1 (202436_s_at) avg fold change vs control” value [2]?
Its value is 1.0 fold.

And the “CYP3A5 (214234_s_at) avg fold change vs control” value [2]?
Its value is 0.9 fold.

What about the “CYP11B1 (214630_at) avg fold change vs control” value [2] of the same compound?
The value was 0.8 fold.

And the “DUSP6 (208893_s_at) avg fold change vs control” value [2]?
Its value is 1.0 fold.

What about the “ECGF1 (204858_s_at) avg fold change vs control” value [2] of the same compound?
Its value is 1.9 fold.

And the “ECM1 (209365_s_at) avg fold change vs control” value [2]?
Its value is 1.3 fold.

What about the “F2RL1 (206429_at) avg fold change vs control” value [2] of the same compound?
The value was 2.0 fold.

What about the “F13A1 (203305_at) avg fold change vs control” value [2] of the same compound?
Its value is 0.9 fold.

And the “FCGR1A (214511_x_at) avg fold change vs control” value [2]?
Its value is 0.6 fold.

And the “FCGR3A (204006_s_at) avg fold change vs control” value [2]?
Its value is 0.8 fold.

What about the “G1P2 (205483_s_at) avg fold change vs control” value [2] of the same compound?
Its value is 3.3 fold.

What about the “GZMB (210164_at) avg fold change vs control” value [2] of the same compound?
Its value is 1.6 fold.

And the “HCA127 (220040_x_at) avg fold change vs control” value [2]?
The value was 0.6 fold.

And the “HCK (208018_s_at) avg fold change vs control” value [2]?
The value was 1.2 fold.

And the “HFE (210864_x_at) avg fold change vs control” value [2]?
The value was 1.2 fold.

What about the “HFE (211329_x_at) avg fold change vs control” value [2] of the same compound?
The value was 0.9 fold.

And the “HFE (211332_x_at) avg fold change vs control” value [2]?
The value was 1.0 fold.

And the “HFE (211863_x_at) avg fold change vs control” value [2]?
Its value is 0.8 fold.
